The values below come from patent publication US11572359B2, “PARP/PI3K double-target inhibit containing pyridopyrimidine structure” (CHINA PHARMACEUTICAL UNIVERSITY, priority 2017, dated 2023).

Molecules are shown by their SMILES. Where two headings read alike, the source gives them in different places. A value given as a limit tells only on which side of the number the result lay.

Data set [1] has as its system Human Breast Cancer MDA-MB-468 Cell Nude Mice Xenograft. The data set is described as follows: Growth of human breast cancer MDA-MB-468 cell nude mice xenograft. Conditions: abdominal cavity, once every 2 days; for Tumor weights: after 34 days, in g (unit assumed). Format: in vivo. The method, then:
Preparing an MDA-MB-468 cell line in a logarithmic growth phase into a 2×10^7/mL cell suspension under sterile conditions, and inoculating 0.1 mL of the cell suspension under the skin of the right axilla of each nude mouse. Measuring the diameter of a nude mice xenograft with a vernier caliper, and randomly dividing the animals into groups after the tumors grew to about 100 mm^3. Dynamically observing an anti-tumor effect of the tested animals using a method of measuring the tumor diameter, wherein the frequency of measurements of the tumor diameter is once every 2 days, and the administration volume is 0.4 mL/20 g. After 34 days, killing the mice and surgically removing and weighing tumor pieces. The formula for calculating tumor volume (TV) is: TV=½×a×b^2, wherein a and b represent the length and the width respectively.
(In xenograft studies the graft and the host belong to different species.)

In a further data set the target is PI3Kα (Homo sapiens, UniProt P42336). The data set is described as follows: PI3Kα inhibitory activity at the enzyme level (ADP detection by luciferase method). Conditions: for inhibition at 0.1 µM: 100 nM compound, read-out: Inhibition rate on PI3Kα (100 nM). Format: biochemical. The method, then:
Experimental method for PI3Kα inhibitory activity: simultaneously adding 40 mM Tris, pH 7.4, 10 mM MgCl2, 0.1 mg/ml BSA, 1 mM DTT, 10 μM ATP, PI3Kα kinase and a kinase substrate into different concentrations of compounds to be sieved to form a 50 μL reaction system, after reaction at 30° C. for 40 minutes, detecting an ADP content in the system through a luciferase method, and then after reaction for 5 minutes, detecting a chemiluminescence signal on an MD-SpectraMax M5 multi-function microplate reader, wherein the intensity of a value of the chemiluminescence signal is in direct proportion to […]. The detected value of the chemiluminescence signal is substituted into the following formula: Enzyme activity percentage (%)=(OD value administration hole-OD value background)/(OD value control hole−OD value background)×100%
(§1) Method for determining IC50 of PARP-1 and PI3Kα: diluting a drug concentration according to a three-fold concentration gradient, and detecting two duplicate wells at each concentration; taking the drug concentration as the abscissa and the percentage of enzyme activity corresponding to each concentration as the ordinate, and calculating to obtain inhibition IC50 values of all tested compounds by using Graphpad Prism5 for nonlinear regression.

Another data set concerns the target PARP-1 (Homo sapiens, UniProt P09874). The data set is described as follows: PARP-1 inhibitory activity at the enzyme level (histone-coated plate, chemiluminescence). The format is biochemical. Conditions: for inhibition at 0.01 µM: 10 nM compound, read-out: Inhibition rate on PARP-1 (10 nM). The method, then:
Experimental method for PARP-1 inhibitory activity: taking out a 96-well plate pre-coated with histones, and adding a following enzyme reaction system and inhibitors of different concentrations into each well, including: 50 μL of a reaction buffer solution (Tris*HCl, pH 8.0), NAD^+, biotin-labeled activated DNA, PARP-1 enzyme, and an inhibitor; after reaction at a room temperature for 1 hour, adding 50 uL of avidin-labeled HRP into each well for reaction for 30 minutes; and then adding 100 μL of an HRP substrate, and detecting a chemiluminescence value on a SpectraMax M instrument. The percentage of enzyme activity is calculated by the following formula: Enzyme activity percentage (%)=(OD value administration hole-OD value background)/(OD value control hole−OD value background)×100%
as §1

Data set [2] deals with MDA-MB-468 (human breast cancer cells). The data set is described as follows: Tumor cell proliferation inhibition (SRB, 72 hours), MDA-MB-468. The format is cell-based. On the procedure: Inoculating HCT116 (human colon cancer cells), HCC1937 (human breast cancer cells), MDA-MB-231 (human breast cancer cells) and MDA-MB-468 (human breast cancer cells) in a logarithmic growth phase with a certain quantity in a 96-well plate (200 μL/well) for culture for 24 hours so as to adhere to walls and then adding drugs. Arranging 3 duplicate wells for each drug concentration, and setting corresponding zero-cut holes and blank controls. After 72 hours of drug action, adding 50% TCA (50 μL/well) into adherent cells, fixing at 4° C. for 1 hour, pouring a fixing solution, washing for 5 times with distilled water, and naturally drying. Adding 100 μL of 4 mg/mL SRB into each well, staining at a room temperature for 15 minutes, discarding, washing for 5 times with 1% glacial acetic acid, and naturally drying. Finally, adding 150 μL of a 10 mM Tris solution into each well, shaking to be uniform, and measuring OD values at a wavelength of 565 nm using a wavelength-adjustable microplate reader (VERSAmax™, Molecular Device).

Sequence of PI3Kα (P42336 whole entry): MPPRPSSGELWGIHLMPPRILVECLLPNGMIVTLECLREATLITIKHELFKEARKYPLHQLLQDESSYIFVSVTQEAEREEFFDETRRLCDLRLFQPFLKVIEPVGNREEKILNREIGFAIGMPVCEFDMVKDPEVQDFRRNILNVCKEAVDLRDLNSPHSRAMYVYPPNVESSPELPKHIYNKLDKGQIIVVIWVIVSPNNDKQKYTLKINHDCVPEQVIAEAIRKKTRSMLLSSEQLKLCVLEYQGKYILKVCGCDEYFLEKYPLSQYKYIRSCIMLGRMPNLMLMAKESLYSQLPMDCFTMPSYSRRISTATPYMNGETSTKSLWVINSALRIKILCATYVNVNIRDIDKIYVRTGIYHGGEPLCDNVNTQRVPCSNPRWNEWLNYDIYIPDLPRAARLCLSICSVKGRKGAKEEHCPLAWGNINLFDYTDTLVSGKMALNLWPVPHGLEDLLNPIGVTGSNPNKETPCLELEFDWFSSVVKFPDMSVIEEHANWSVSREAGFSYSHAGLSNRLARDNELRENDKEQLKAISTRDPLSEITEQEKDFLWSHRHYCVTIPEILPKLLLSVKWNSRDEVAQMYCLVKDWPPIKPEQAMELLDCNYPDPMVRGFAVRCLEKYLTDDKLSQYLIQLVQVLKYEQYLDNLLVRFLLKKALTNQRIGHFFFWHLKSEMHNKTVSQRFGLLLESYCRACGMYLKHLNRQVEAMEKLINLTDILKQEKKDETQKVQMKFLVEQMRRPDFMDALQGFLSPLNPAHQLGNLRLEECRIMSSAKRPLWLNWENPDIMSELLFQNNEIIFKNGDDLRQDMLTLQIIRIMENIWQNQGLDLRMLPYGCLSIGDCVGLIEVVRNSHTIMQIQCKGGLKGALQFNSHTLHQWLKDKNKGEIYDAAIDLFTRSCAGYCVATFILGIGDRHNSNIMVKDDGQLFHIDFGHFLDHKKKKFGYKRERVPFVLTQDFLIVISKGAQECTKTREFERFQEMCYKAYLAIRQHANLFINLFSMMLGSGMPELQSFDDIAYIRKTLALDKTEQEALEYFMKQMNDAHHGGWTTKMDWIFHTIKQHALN
Sequence of PI3Kα (P27986 whole entry partner): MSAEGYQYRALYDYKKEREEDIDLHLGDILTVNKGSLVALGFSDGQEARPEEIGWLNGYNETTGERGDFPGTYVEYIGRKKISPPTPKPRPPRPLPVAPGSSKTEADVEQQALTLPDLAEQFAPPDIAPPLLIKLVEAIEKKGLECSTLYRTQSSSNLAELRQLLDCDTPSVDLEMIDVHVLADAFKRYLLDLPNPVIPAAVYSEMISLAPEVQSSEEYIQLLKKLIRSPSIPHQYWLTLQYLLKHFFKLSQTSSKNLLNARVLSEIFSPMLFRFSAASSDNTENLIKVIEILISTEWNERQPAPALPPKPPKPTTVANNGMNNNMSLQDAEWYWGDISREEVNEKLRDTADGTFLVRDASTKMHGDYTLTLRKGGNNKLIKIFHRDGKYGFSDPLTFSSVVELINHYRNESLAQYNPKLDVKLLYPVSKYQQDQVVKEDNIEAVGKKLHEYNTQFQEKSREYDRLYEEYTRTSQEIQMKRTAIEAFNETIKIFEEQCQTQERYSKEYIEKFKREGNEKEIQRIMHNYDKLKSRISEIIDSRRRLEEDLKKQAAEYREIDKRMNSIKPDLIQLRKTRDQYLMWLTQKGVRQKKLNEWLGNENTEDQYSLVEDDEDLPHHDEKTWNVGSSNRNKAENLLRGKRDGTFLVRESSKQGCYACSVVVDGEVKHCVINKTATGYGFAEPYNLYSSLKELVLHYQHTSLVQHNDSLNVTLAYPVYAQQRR
Sequence of PARP-1 (P09874 whole entry): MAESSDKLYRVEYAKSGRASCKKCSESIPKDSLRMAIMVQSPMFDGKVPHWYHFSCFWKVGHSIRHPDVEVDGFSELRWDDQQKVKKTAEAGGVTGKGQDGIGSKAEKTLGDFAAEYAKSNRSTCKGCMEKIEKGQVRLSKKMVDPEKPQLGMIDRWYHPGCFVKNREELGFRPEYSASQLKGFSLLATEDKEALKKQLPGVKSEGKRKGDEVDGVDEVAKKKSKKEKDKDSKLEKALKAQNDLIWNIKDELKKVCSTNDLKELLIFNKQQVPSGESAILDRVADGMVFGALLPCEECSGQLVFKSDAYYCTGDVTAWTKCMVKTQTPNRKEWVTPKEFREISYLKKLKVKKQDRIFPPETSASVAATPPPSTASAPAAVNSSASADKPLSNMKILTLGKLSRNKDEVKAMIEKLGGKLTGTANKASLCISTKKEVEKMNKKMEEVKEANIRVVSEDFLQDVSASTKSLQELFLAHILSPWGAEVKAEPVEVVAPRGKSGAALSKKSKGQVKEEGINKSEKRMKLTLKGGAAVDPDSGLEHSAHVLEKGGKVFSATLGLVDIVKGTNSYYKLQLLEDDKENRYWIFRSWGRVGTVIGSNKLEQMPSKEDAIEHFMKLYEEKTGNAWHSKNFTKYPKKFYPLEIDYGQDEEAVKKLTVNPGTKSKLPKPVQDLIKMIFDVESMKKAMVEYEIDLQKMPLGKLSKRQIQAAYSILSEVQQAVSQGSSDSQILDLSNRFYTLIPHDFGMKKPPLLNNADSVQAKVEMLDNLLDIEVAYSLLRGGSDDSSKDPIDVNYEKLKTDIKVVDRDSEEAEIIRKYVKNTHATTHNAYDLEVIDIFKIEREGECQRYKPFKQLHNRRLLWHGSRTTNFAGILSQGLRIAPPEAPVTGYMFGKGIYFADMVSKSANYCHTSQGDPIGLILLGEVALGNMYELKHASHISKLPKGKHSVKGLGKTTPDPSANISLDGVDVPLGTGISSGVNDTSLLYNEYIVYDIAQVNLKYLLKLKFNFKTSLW

Turning to `Nc1cc(C(F)(F)F)c(-c2cc(N3CCOCC3)nc(N3CCOCC3)n2)cn1` [BKM120, reference compound], the “Tumor Volumes” value amounted to 94.67 mm^3 in data set [1] (0 day, 27.5 mg/kg); 203.83 mm^3 in data set [1] (6 days, 27.5 mg/kg); 294.34 mm^3 in data set [1] (12 days, 27.5 mg/kg); 388.09 mm^3 in data set [1] (18 days, 27.5 mg/kg); 525.13 mm^3 in data set [1] (24 days, 27.5 mg/kg); 677.51 mm^3 in data set [1] (30 days, 27.5 mg/kg). Also, the “Tumor Volumes” value in data set [1] (34 days, 27.5 mg/kg) turned out to be 777.59 mm^3. In data set [1] (27.5 mg/kg), the Tumor weights was found to be 1.36.

As for `O=C(c1cc(Cc2n[nH]c(=O)c3ccccc23)ccc1F)N1CCN(C(=O)C2CC2)CC1` [Olaparib, reference compound], the “Tumor Volumes” value in data set [1] (0 day, 50 mg/kg (I-1: medium)) was 96.41 mm^3; in data set [1] (6 days, 50 mg/kg (I-1: medium)), 222.00 mm^3; in data set [1] (12 days, 50 mg/kg (I-1: medium)), 324.20 mm^3; in data set [1] (18 days, 50 mg/kg (I-1: medium)) it was 422.84 mm^3; in data set [1] (24 days, 50 mg/kg (I-1: medium)), 566.86 mm^3; in data set [1] (30 days, 50 mg/kg (I-1: medium)) it was 718.76 mm^3. For the same molecule, the “Tumor Volumes” value in data set [1] (34 days, 50 mg/kg (I-1: medium)) is 834.87 mm^3. The molecule also registered a Tumor weights in data set [1] (50 mg/kg (I-1: medium)) of 1.55.

`Nc1cc(-c2nc3c(c(N4CCOCC4)n2)CCN(C(=O)c2cc(Cc4n[nH]c(=O)c5ccccc45)ccc2F)C3)ccc1F` [I-7, 4-(3-(2-(3-amino-4-fluorophenyl)-4-morpholinyl-5,6,7,8-tetrahydropyrido[3,4-d]pyrimidin-7-formyl)-4-fluorobenzyl)phthalazin-1(2H)-one]: the melting point (in general, the temperature of the solid-liquid transition) is 236 to 239 °C. Besides, the inhibition – broadly, the share of the control response that was lost under treatment – at 0.1 µM at PI3Kα was determined as 27%. In addition, the inhibition at 0.01 µM on PARP-1 is 83%.

As for `O=C(c1cc(Cc2n[nH]c(=O)c3ccccc23)ccc1F)N1CCc2c(nc(-c3cccc4[nH]ccc34)nc2N2CCOCC2)C1` [I-10, 4-(3-(2-(1H-indole-4-yl)-4-morpholinyl-5,6,7,8-tetrahydropyrido[3,4-d]pyrimidin-7-formyl)-4-fluorobenzyl)phthalazin-1(2H)-one], the inhibition at 0.1 µM on PI3Kα came to 15%. The inhibition at 0.01 µM at PARP-1 came to 88%.

`O=C(c1cc(Cc2n[nH]c(=O)c3ccccc23)ccc1F)N1CCc2c(nc(-c3ccc4[nH]ccc4c3)nc2N2CCOCC2)C1` [I-9, 4-(3-(2-(1H-indole-5-yl)-4-morpholinyl-5,6,7,8-tetrahydropyrido[3,4-d]pyrimidin-7-formyl)-4-fluorobenzyl)phthalazin-1(2H)-one] showed a melting point of 238 to 240 °C. Besides, on PI3Kα, the inhibition at 0.1 µM was 30%. Also, the inhibition at 0.01 µM on PARP-1 amounted to 85%.

With `O=C(CN1CCOCC1)Nc1cc(C(F)(F)F)c(-c2nc3c(c(N4CCOCC4)n2)CCN(C(=O)c2cc(Cc4n[nH]c(=O)c5ccccc45)ccc2F)C3)cn1` [I-4, N-(5-(7-(2-fluoro-5-((4-oxo-3,4-dihydrophthalazin-1-yl)methyl)benzoyl)-4-morpholinyl-5,6,7,8-tetrahydropyrido[3,4-cl]pyrimidin-2-yl)-4-(trifluoromethyl)pyridin-2-yl)-2-morpholinyl acetamide], the inhibition at 0.1 µM on PI3Kα was 53%. Further, the inhibition at 0.01 µM on PARP-1 was found to be 67%.

For `Nc1ccc(-c2nc3c(c(N4CCOCC4)n2)CCN(C(=O)c2cc(Cc4n[nH]c(=O)c5ccccc45)ccc2F)C3)c(F)c1` [I-6, 4-(3-(2-(4-amino-2-fluorophenyl)-4-morpholinyl-5,6,7,8-tetrahydropyrido[3,4-d]pyrimidin-7-formyl)-4-fluorobenzyl)phthalazin-1(2H)-one], the melting point lay in the range of 204 to 206 °C. The inhibition at 0.1 µM on PI3Kα was 24%. Also, the inhibition at 0.01 µM at PARP-1 was found to be 89%.

The molecule `C[C@H]1COCCN1c1nc(-c2cnc(N)nc2)nc2c1CCN(C(=O)c1cc(Cc3n[nH]c(=O)c4ccccc34)ccc1F)C2` [I-11, (S)-4-(3-(2-(2-aminopyrimidin-5-yl)-4-(3-methylmorpholinyl)-5,6,7,8-tetrahydropyrido [3,4-d]pyrimidin-7-formyl)-4-fluorobenzyl)phthalazin-1(2H)-one] gave a melting point of 214 to 216 °C. In addition, the half-maximal inhibitory concentration (IC50) (usually the concentration at which inhibition is half-maximal) in data set [2] came out at 738 nM. Besides, the IC50 in data set [2] (Homo sapiens, MDA-MB-468, 72 h) is under 1000 nM. At PI3Kα, inhibition was half-maximal at 29.8 nM (IC50) and the inhibition at 0.1 µM amounted to 67%. Besides, at PARP-1, it took 0.376 nM to reach half-maximal inhibition (IC50) and the inhibition at 0.01 µM came to 94%.

`Nc1ncc(-c2nc3c(c(N4CCOCC4)n2)CCN(C(=O)c2cc(Cc4n[nH]c(=O)c5ccccc45)ccc2F)C3)cc1C(F)(F)F` [I-5, 4-(3-(2-(6-amino-5-(trifluoromethyl)pyridin-3-yl)-4-morpholinyl-5,6,7,8-tetrahydropyrido [3,4-d]pyrimidin-7-formyl)-4-fluorobenzyl)phthalazin-1(2H)-one]: the melting point lay in the range of 256 to 258 °C. The inhibition at 0.1 µM at PI3Kα was 17%. Also, at PARP-1, the inhibition at 0.01 µM came to 81%.
